{"source": "patent US7189754B2", "about": "“Pyrrolidine ester derivatives with oxytocin modulating activity” (Applied Research Systems ARS Holding NV, priority 2001, dated 2007)"}
{"target": "T1, human Oxytocin (hOT) receptor (Homo sapiens, UniProt P30559)", "T1 construct": "expressed in transfected cells; host or cells: HEK293EBNA", "T1 sequence (P30559 1-389)": "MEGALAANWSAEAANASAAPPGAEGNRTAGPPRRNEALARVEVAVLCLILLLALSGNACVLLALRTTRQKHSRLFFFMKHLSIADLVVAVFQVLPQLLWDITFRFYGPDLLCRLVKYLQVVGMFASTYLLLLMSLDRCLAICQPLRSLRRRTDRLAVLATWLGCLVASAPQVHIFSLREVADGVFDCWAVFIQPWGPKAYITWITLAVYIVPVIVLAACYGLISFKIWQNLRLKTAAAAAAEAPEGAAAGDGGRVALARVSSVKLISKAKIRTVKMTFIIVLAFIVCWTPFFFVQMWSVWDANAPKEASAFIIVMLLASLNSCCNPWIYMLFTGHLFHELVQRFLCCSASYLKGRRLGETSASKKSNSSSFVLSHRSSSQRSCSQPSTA", "assay": "In vitro competition binding assay on hOT receptor with scintillation proximity assay ([125I]-OVTA)", "conditions": "HEK293EBNA membranes expressing hOT receptor, 0.2 nM [125I]-OVTA, SPA; read-out: Binding affinity human OT-R IC50", "protocol": "a) In Vitro Competition Binding Assay on hOT Receptor with Scintillation Proximity Assay (see Cook, N. D. et al. Pharmaceutical Manufacturing International 1992; p.49–53)\nThis assay allows to determine the affinity of the test compounds for the human Oxytocin (hOT) receptor. Membranes from HEK293EBNA (cells expressing the hOT receptor) were suspended in buffer containing 50 mM Tris-HCl, pH 7.4, 5 mM MgCl2 and 0.1% BSA (w/v). The membranes (2–4 μg) were mixed with 0.1 mg SPA bead coated with wheat-germ aglutinin (WGA-PVT-Polyethylene Imine beads from Amersham) and 0.2 nM of the radiolabelled [^125I]-OVTA (OVTA being Ornithin Vasoactive, an analogue of OT for competitive binding experiments). Non-specific binding was determined in the presence of 1 μM Oxytocin. The total assay volume was 100 μl. The plates (Corning® NBS plate) were incubated at room temperature for 30 min and counted on a Mibrobeta® plate scintillation counter. Competitive binding was performed in presence of compounds of formula (I) at the following concentrations: 30 μM, 10 μM, 1 μM, 300 nM, 100 nM, 10 nM, 1 nM, 100 pM, 10 pM. The competitive binding data were analysed using the iterative, nonlinear, curve-fitting program, “Prism” (GraphPad Software, Inc).\nThe ability of the pyrrolidine derivatives of formula (I) to inhibit the binding of ^125I-OVTA to the OT-receptor was assessed using the above described in vitro biological assay. Representative values for some example compounds are given in Table 1, where the binding affinity of the compounds is expressed by the IC50 (μM) which is the concentration upon which 50% inhibition of OT-R is achieved. From these values, it can be derived that said test compounds according to formula (I) do show a significant binding to the oxytocin receptor.", "units": {"IC50": "nM"}}
{"smiles": "CON=C1C[C@@H](C(=O)OC)N(C(=O)c2ccc(-c3ccccc3)cc2)C1", "note": "(mixture of isomers) [Methyl (2S,4EZ)-1-([1,1′-biphenyl]-4-ylcarbonyl)-4-(methoxyimino)-2-pyrrolidinecarboxylate]", "IC50": 45}
{"smiles": "CON=C1C[C@@H](C(=O)OC)N(C(=O)c2ccc(-c3ccccc3F)cc2)C1", "note": "(mixture of isomers) [Methyl (2S,4EZ)-4-(methoxyimino)-1-[(2′-fluoro[1,1′-biphenyl]-4-yl)carbonyl]-2-pyrrolidinecarboxylate]", "IC50": 100}
{"smiles": "CON=C1C[C@@H](C(=O)OC)N(C(=O)c2ccc(-c3ccccc3C)cc2)C1", "note": "[Methyl (2S,4EZ)-4-(methoxyimino)-1-[(2′-methyl[1,1′-biphenyl]-4-yl)carbonyl]-2-pyrrolidinecarboxylate]", "IC50": 28}
